Data published in paper PMC9653995, “New Positive TRPC6 Modulator Penetrates Blood–Brain Barrier, Eliminates Synaptic Deficiency and Restores Memory Deficit in 5xFAD Mice” (International Journal of Molecular Sciences, 2022).

Assays:
[1] = In vitro stability in pooled mouse blood plasma; format: in vitro ADME; conditions: 1 µM, 37 °C
Experimental: The stability of C20 was assessed during incubation with pooled mouse plasma samples for 4 h at 37 °C. To confirm the activity of blood plasma enzymes in the control substance, propantheline (Figure 4A) was used.
The compound C20, at a final concentration of 1 μM, was incubated in mouse plasma at 37 °C with moderate shaking at 300 rpm in a shaker-incubator. After 0, 15, 30, 60 and 240 min, the samples were mixed, aliquots were obtained, and the samples were analyzed by HPLC-MS/MS. Propantheline was used as a control compound. Incubation of compounds with plasma samples was carried out in duplicate. Overall, 100% was obtained as the amount of a substance determined using a mass spectrometer in blood plasma in a 0 min incubation time period.
A total of 3 µL of 100-fold C20 or propantheline substance (0.1 mM) was added to 297 µL of blood plasma preheated to 37 °C to a final concentration of 1 µM.
Aliquots of 30 μL for the time point T = 0 were transferred into microtubes with a capacity of 1.1 mL pre-filled with 180 μL of chilled MeCN with an internal standard of Tolbutamide (IS) at a concentration of 50 ng/mL. Mixed and kept at +4 °C for 15 min. […]
The values of the areas of chromatographic peaks of substances in the studied samples normalized to the area of IS were used for calculations. The 100% of the tested substance from the initial amount was determined at T = 0 min of incubation. […]

[2] = tested on: hippocampal slices from 8-month-old 5xFAD mice; assay: LTP induction (HFS) in hippocampal Schaffer collateral-CA1 synapses of brain slices, fEPSP recording; format: cell-based, mouse; conditions: 100 nM, normalized to baseline, mean ± SEM
Experimental: Long-term potentiation (LTP) is considered a cellular mechanism for long-term memory. LTP deficits have been reported in AD mouse models including 5xFAD mice. We examined whether C20 could improve synaptic plasticity in hippocampal slices of 5xFAD mice. LTP was induced in hippocampal Schaffer collateral-CA1 synapses by high-frequency stimulation (HFS).
Mouse transcardial perfusion was performed with 0–2 °C of holding buffer containing (in mM): 124 NaCl, 2.5 KCl, 24 NaHCO3, 1.2 NaH2PO4, 5 HEPES, 0.5 CaCl2*2H2O, 10 MgCl2*7H2O, 3 Na-pyruvate, and 12.5 D-glucose. […]
After incubation, the slices were placed in a recording chamber and perfused with a constant flow of recording buffer saturated with carbogen. […] Field excitatory postsynaptic potentials (fEPSPs) were recorded from CA1 stratum radiatum in recording buffer (124 mM NaCl, 2.5 mM KCl, 24 mM NaHCO3, 1.2 mM NaH2PO4, 5 mM HEPES, 2 mM CaCl2*2H2O, 0.8 mM MgCl2*7H2O, and 12.5 mM D-glucose) using borosilicate glass microelectrodes (300–400 kΩ) filled with recording buffer. […] Electrophysiological field responses were amplified and controlled using a Multiclamp 700B (Molecular Devices, Sunnyvale, CA, USA), digitized by Digidata 1440A (Molecular Devices, USA) and analyzed by pClamp 10.6 (Axon Instruments, Union City, California, USA). […] The amplitude and slope of the rising phase of EPSP at a level of 20–80% of the peak amplitude were measured. […]

initial amount remaining in mouse blood plasma ([1]; after 4 h incubation): about 62% | concentration remaining in mouse blood plasma ([1]; during the first hour of incubation): above 85%
Compound: COc1cc2c(cc1OC)C(c1cc3ccccc3oc1=O)=NC(C)(C)C2 [C20, 3-(3-,4-Dihydro-6,7-dimethoxy-3,3-dimethyl-1-isoquinolinyl)-2H-1-benzopyran-2-one]
average fEPSP slope 30–40 min after HFS ([2]; 8-month-old 5xFAD slices, 5xFAD alone 115.5 ± 3.0%): 149.4 ± 9.7% | average fEPSP slope 30–40 min after HFS ([2]; WT slices, WT alone 168.7 ± 4.8%): 161.4 ± 9.6%
